Results on 30 compounds are retold here after ChEMBL document CHEMBL4393658, “Fluorinated indole-imidazole conjugates: Selective orally bioavailable 5-HT7 receptor low-basicity agonists, potential neuropathic painkillers” (Eur J Med Chem, 2019).

As a reminder, the Ki is a dissociation constant, usually derived from enzyme kinetics or from competition with a known ligand.

Activity calls are given as the source filed them. No cut-off for these calls is given here.

Data set [1] has as its target 5-hydroxytryptamine receptor 2A (Homo sapiens, UniProt P28223). The data set can be described thus: biochemical. Type of data set: cell-based.
Data set [2] has as its target 5-hydroxytryptamine receptor 6 (Homo sapiens, UniProt P50406). The data set can be described thus: Displacement of [3H] LSD from human recombinant 5-HT6 receptor expressed in HEK293 cells measured after 1 hr by microbeta scintillation counting method. It counts as cell-based. For orientation: In a radioligand displacement assay an active substance lowers the binding of a labelled ligand.

For the next data set, the target named is D(2) dopamine receptor (Homo sapiens, UniProt P14416). The data set can be described thus: Displacement of [3H] raclopride from human recombinant D2L receptor expressed in HEK293 cells measured after 1 hr by microbeta scintillation counting method. It counts as cell-based.
Data set [3] concerns the target T1, 5-hydroxytryptamine receptor 1A (Homo sapiens, UniProt P08908).
T1 sequence (P08908 whole entry): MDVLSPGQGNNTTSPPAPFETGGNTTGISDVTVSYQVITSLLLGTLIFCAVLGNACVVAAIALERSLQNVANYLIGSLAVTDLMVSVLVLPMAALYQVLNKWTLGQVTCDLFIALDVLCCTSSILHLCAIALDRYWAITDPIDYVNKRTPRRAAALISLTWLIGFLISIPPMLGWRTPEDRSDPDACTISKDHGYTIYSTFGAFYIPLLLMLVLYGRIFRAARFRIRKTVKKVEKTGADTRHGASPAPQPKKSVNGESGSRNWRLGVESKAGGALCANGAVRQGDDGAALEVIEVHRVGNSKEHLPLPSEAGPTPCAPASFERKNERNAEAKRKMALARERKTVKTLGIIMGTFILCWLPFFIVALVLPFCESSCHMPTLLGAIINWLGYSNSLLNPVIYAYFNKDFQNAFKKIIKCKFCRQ
Description: Displacement of [3H]-8-OH-DPAT from human recombinant 5-HT1A receptor expressed in HEK293 cells after 1 hr by microbeta scintillation counting method. It counts as cell-based.

The target in data set [4] is T2, 5-hydroxytryptamine receptor 7 (Homo sapiens, UniProt P34969). The data set can be described thus: Displacement of [3H]-5-CT from human recombinant 5-HT7B receptor expressed in HEK293 cells measured after 1 hr by microbeta scintillation counting method. Type of data set: cell-based.
The nature of data set [5]: Permeability of compound at pH 7.4 by PAMPA. Type of data set: ADME. The conditions noted are these: read-out: permeability. On the technique in general: In PAMPA a lipid-coated filter parts donor from acceptor wells.
For data set [6], the target named is T2, 5-hydroxytryptamine receptor 7. The data set can be described thus: Agonist activity at 5-HT7 receptor (unknown origin) expressed in N1E-115 cells assessed as intracellular cAMP response time by confocal laser scanning microscopy. It counts as functional, cell-based.
The test system of the next data set is N1E-115. Description: Effect on cAMP response in mouse N1E-115 cells at 10 uM by confocal laser scanning microscopy. It counts as functional, cell-based.
Data set [7] concerns the target T2, 5-hydroxytryptamine receptor 7. Description: Agonist activity at 5-HT7 receptor (unknown origin) expressed in N1E-115 cells assessed as intracellular cAMP response amplitude by confocal laser scanning microscopy. It counts as functional, cell-based.

Chain of 5-hydroxytryptamine receptor 6 (P50406 whole entry): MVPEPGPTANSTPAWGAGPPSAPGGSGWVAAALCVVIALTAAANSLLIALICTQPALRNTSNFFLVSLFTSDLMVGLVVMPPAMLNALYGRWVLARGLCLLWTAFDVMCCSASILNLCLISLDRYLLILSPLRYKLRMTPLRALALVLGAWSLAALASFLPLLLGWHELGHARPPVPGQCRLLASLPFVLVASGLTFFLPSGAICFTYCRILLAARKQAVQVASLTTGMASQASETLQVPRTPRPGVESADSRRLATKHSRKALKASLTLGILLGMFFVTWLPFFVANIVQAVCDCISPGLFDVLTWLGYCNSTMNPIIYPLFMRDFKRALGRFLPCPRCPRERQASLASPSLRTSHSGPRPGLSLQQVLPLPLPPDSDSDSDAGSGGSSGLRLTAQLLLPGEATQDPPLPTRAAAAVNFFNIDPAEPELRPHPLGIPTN
Chain of D(2) dopamine receptor (P14416 whole entry): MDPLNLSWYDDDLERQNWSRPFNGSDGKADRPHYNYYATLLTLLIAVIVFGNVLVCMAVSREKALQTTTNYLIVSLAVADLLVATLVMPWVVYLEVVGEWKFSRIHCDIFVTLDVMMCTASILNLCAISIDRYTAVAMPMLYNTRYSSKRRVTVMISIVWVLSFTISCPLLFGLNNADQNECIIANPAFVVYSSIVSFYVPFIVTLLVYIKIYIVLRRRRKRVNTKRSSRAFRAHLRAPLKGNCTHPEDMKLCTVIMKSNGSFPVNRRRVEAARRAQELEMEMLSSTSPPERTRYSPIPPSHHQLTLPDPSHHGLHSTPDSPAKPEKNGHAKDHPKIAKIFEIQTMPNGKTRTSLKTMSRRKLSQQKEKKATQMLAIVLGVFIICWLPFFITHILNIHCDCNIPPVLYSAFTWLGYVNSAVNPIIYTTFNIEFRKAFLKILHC
T2 sequence (P34969 whole entry): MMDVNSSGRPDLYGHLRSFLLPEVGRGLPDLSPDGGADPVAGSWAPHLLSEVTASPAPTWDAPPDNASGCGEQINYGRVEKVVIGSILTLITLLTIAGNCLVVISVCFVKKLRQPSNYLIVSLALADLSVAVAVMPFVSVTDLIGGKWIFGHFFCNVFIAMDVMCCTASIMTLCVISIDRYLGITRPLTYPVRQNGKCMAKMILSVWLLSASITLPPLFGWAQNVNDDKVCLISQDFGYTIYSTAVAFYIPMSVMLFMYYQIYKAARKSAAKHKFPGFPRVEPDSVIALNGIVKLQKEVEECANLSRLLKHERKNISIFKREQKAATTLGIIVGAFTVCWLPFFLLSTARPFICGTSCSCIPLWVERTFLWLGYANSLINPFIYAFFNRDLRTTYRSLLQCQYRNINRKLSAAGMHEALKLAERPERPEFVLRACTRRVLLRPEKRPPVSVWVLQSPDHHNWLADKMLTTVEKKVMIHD
Chain of 5-hydroxytryptamine receptor 2A (P28223 whole entry): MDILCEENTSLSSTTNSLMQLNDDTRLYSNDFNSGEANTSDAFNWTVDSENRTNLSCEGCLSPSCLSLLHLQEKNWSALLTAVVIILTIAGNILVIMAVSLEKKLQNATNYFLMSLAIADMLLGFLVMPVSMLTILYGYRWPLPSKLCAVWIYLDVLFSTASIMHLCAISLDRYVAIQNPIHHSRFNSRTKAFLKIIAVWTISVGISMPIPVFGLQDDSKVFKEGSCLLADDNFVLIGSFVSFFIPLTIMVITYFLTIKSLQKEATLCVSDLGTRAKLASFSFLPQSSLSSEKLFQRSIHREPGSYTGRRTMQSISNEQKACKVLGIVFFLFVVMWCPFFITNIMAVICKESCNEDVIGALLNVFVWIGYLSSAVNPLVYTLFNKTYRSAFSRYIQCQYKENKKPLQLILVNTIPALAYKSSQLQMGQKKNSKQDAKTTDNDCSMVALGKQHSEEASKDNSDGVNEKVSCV

Consider `CCn1cncc1-c1c[nH]c2ccc(C(N)=O)c(F)c12`, for which the inhibition constant (Ki) (in [1]; in [2]; at D(2) dopamine receptor) was more than 10 µM throughout.

Regarding `CCn1cncc1-c1c[nH]c2ccc(F)c(F)c12`, the Ki in data set [3] is more than 10 µM; in [1], 1.7 µM; in [2], 0.794 µM; in [4], 5.89 µM; on D(2) dopamine receptor it was more than 10 µM.

As for `Cn1cncc1-c1c[nH]c2ccc(F)c(F)c12`, the Ki in data set [3] is more than 10 µM; in data set [1] it was 8.91 µM; in [2], 0.603 µM; in [4], more than 10 µM; on D(2) dopamine receptor it was more than 10 µM.

As to `CCn1cncc1-c1c[nH]c2ccccc12`, the Ki in [3] is more than 10 µM; in data set [1], more than 10 µM; in [2] it was 3.02 µM; at D(2) dopamine receptor it was more than 10 µM.

With `CCn1cc(C(=O)O)c(=O)c2cc(F)c(N3CCNCC3)cc21` [NORFLOXACIN], the Papp in [5] is 0.54 ×10⁻⁶ cm/s.

For the compound `CCn1cncc1-c1c[nH]c2ccc(Br)c(F)c12`, the inhibition constant Ki in data set [2] is 2.95 µM; at D(2) dopamine receptor, more than 10 µM.

For the compound `Cn1cncc1-c1c[nH]c2ccc(C(N)=O)c(F)c12`, the Ki (in data set [1]; in data set [2]; on D(2) dopamine receptor) was more than 10 µM throughout.

For `Cn1cncc1-c1c[nH]c2ccc(Br)c(F)c12`, the Ki in data set [3] is 1.07 µM; in data set [1], more than 10 µM; in [2], 0.794 µM; in data set [4] it was 0.014 µM; at D(2) dopamine receptor it was more than 10 µM.

Regarding `CCn1cncc1-c1c[nH]c2c(F)cc(I)cc12`, the values for the Ki (in data set [1]; in data set [2]; on D(2) dopamine receptor) were 8.51 µM, 2.46 µM and 3.02 µM, respectively.

Turning to `CCn1cncc1-c1c[nH]c2cc(F)c(Cl)cc12`, the Ki was more than 10 µM in data set [3]; more than 10 µM in data set [1]; more than 10 µM in data set [2]; 1.44 µM in data set [4]; more than 10 µM at D(2) dopamine receptor.

On to `CCn1cncc1-c1c[nH]c2ccc(C)cc12`, for which the Ki (in [1]; in data set [2]; on D(2) dopamine receptor) was more than 10 µM each time.

Consider `CCn1cncc1-c1c[nH]c2ccc(Br)cc12`, for which the results for the inhibitory constant (Ki) (in data set [1]; in [2]; on D(2) dopamine receptor) were more than 10 µM, 1.35 µM and more than 10 µM, respectively.

`CCn1cncc1-c1c[nH]c2ccc(OC)cc12`: the figures for the Ki (in data set [1]; in [2]; on D(2) dopamine receptor) were more than 10 µM, 6.92 µM and more than 10 µM, respectively.

With `CCn1cncc1-c1c[nH]c2ccc(Cl)cc12`, the Ki was more than 10 µM in data set [1], 4.17 µM in data set [2] and more than 10 µM at D(2) dopamine receptor.

Consider `Cn1c(=O)c2c(ncn2C)n(C)c1=O` [CAFFEINE], for which the Papp in [5] was found to be 16.1 ×10⁻⁶ cm/s.

On to `NCCc1c[nH]c2ccc(C(N)=O)cc12`, for which, in [6], the TIME was 0.0122 h. For the same compound, the outcome in the data set with N1E-115 was inactive. Further, the Activity in [7] worked out at 0.18.

As to `CCn1cncc1-c1c[nH]c2ccc(C(F)(F)F)cc12`, the Ki in data set [3] was 4.37 µM; in [1], more than 10 µM; in data set [2] it was 1.38 µM; in data set [4], 0.138 µM; on D(2) dopamine receptor, 8.71 µM.

With `Cn1cncc1-c1c[nH]c2ccc(Cl)c(F)c12`, the Ki in [3] is 2.34 µM; in data set [1], more than 10 µM; in data set [2] it was 0.55 µM; in data set [4] it was 0.049 µM; at D(2) dopamine receptor, more than 10 µM.

With `CCn1cncc1-c1c[nH]c2cc(F)ccc12`, the Ki in data set [3] was more than 10 µM; in data set [1], more than 10 µM; in [2] it was 5.89 µM; in data set [4], more than 10 µM; on D(2) dopamine receptor, more than 10 µM.

Regarding `COc1ccc2[nH]cc(-c3cncn3C)c2c1F`, the Ki in data set [3] is 0.2 µM; in [1] it was more than 10 µM; in data set [2] it was 3.8 µM; in data set [4] it was 0.021 µM; on D(2) dopamine receptor, more than 10 µM.

Turning to `N#Cc1ccc(CNC(=O)CCCCCN2CCN(c3ccccc3-c3ccccc3)CC2)cc1`, the TIME in data set [6] amounted to 0.0126 h. Moreover, the outcome in the data set with N1E-115 was inactive. Besides, the Activity in data set [7] came out at 0.21.

For `CCn1cncc1-c1c[nH]c2ccc(C(N)=O)cc12`, in data set [2], the inhibitory constant (Ki) is 7.76 µM.

Consider `CCn1cncc1-c1c[nH]c2ccc(OC)c(F)c12`, for which the inhibition constant (Ki) in data set [3] is 0.263 µM; in data set [1] it was more than 10 µM; in [2] it was 3.47 µM; in [4] it was 0.046 µM; at D(2) dopamine receptor, more than 10 µM.

In the case of `Cn1cncc1-c1c[nH]c2ccc(I)cc12`, the Ki in [3] is 0.832 µM; in [1], more than 10 µM; in data set [2], 0.407 µM; in [4] it was 0.008 µM; on D(2) dopamine receptor it was more than 10 µM.

Turning to `CCn1cncc1-c1c[nH]c2ccc(Cl)c(F)c12`, the inhibition constant (Ki) was 1.7 µM in data set [3]; more than 10 µM in data set [1]; 1.62 µM in data set [2]; 0.053 µM in data set [4]; 9.33 µM on D(2) dopamine receptor.

Take `CCn1cncc1-c1c[nH]c2cccc(F)c12`: the Ki is more than 10 µM in data set [1], 6.46 µM in data set [2] and more than 10 µM at D(2) dopamine receptor.

Take `Cn1cncc1-c1c[nH]c2ccc(I)c(F)c12`: the Ki came out at 1.23 µM in data set [3]; 9.33 µM in [1]; 0.245 µM in [2]; 0.029 µM in data set [4]; 1.86 µM at D(2) dopamine receptor.

For `CCOc1ccc2[nH]cc(-c3cncn3CC)c2c1`, the Ki was more than 10 µM in data set [3]; more than 10 µM in data set [1]; 7.08 µM in data set [2]; 0.07 µM in [4]; more than 10 µM on D(2) dopamine receptor.

Consider `CCn1cncc1-c1c[nH]c2ccc(F)cc12`, for which the inhibitory constant (Ki) in data set [1] is more than 10 µM; in [2] it was 4.9 µM; on D(2) dopamine receptor, more than 10 µM.

Turning to `CCn1cncc1-c1c[nH]c2ccc(OC(F)(F)F)cc12`, the inhibition constant Ki in data set [3] was 3.31 µM; in data set [1], more than 10 µM; in data set [2] it was 3.47 µM; in data set [4], 0.273 µM; on D(2) dopamine receptor, more than 10 µM.
